From patent US10828370B2, “Selectin and ICAM/VCAM peptide ligand conjugates” (Purdue Research Foundation, priority 2014, dated 2020)

Tests used:
[1] = system: TNF-α stimulated endothelial cells (ECs); assay: Relative binding affinity of EC-SEAL conjugates to endothelial cells (Streptavidin-HRP absorbance); assay type: cell-based; conditions: 3 μM treatments
[2] = system: Selectin (E-Selectin and S-Selectin); conditions: selectin-binding peptide, free sequence; literature reference; cited from earlier work

## IEL/DGE-10,10 (peptide 1 IELLQARGC; peptide 2 DGEATDGC)
[1]
  relative binding to endothelial cells vs single receptor-binding conjugates (FIG. 4): greater binding

## QITWAQLWNMMK
[2]
  IC50: ~0.16 µM

## IELLQAR
[2]
  IC50: ~200 µM

## IDLMQAR
[2]
  IC50: ~200 µM
